# Test results from PubChem BioAssay (NCI).
#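 Tested at 5 concentrations; 48 h exposure; 96-well plates; endpoints linearly interpolated, else capped at highest concentration. GI50 is the concentration that inhibits growth by half. TGI: total growth inhibition.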
# Key:
# Test in all cases: NCI-60 cell line screen, 48 h
# 786-0 renal = test system: 786-0 renal
# HCT-116 colon = test system: HCT-116 colon
# U251 CNS = test system: U251 CNS
# MDA-MB-231 breast = test system: MDA-MB-231 breast
# ACHN renal = test system: ACHN renal
# HOP-62 NSCLC = test system: HOP-62 NSCLC
# DU-145 prostate = test system: DU-145 prostate
# UO-31 renal = test system: UO-31 renal
# MOLT-4 leukemia = test system: MOLT-4 leukemia
# SW-620 colon = test system: SW-620 colon
# NCI-H522 lung = test system: NCI-H522 lung
# OVCAR-3 ovarian = test system: OVCAR-3 ovarian
# SN12C renal = test system: SN12C renal
# SK-MEL-28 melanoma = test system: SK-MEL-28 melanoma
# HCC-2998 colon = test system: HCC-2998 colon
# COLO 205 colon = test system: COLO 205 colon
# NCI-H226 lung = test system: NCI-H226 lung
# NCI/ADR-RES ovarian = test system: NCI/ADR-RES ovarian
# K-562 leukemia = test system: K-562 leukemia
# MCF7 breast = test system: MCF7 breast
# SK-MEL-2 melanoma = test system: SK-MEL-2 melanoma
# HOP-92 NSCLC = test system: HOP-92 NSCLC
# BT-549 breast = test system: BT-549 breast
# MALME-3M melanoma = test system: MALME-3M melanoma
# CAKI-1 renal = test system: CAKI-1 renal
# OVCAR-5 ovarian = test system: OVCAR-5 ovarian
# A498 renal = test system: A498 renal
# HCT-15 colon = test system: HCT-15 colon
# PC-3 prostate = test system: PC-3 prostate
# NCI-H460 lung = test system: NCI-H460 lung
# KM12 colon = test system: KM12 colon
# SNB-19 CNS = test system: SNB-19 CNS
# RXF 393 renal = test system: RXF 393 renal
# SK-OV-3 ovarian = test system: SK-OV-3 ovarian
# MDA-MB-435 = test system: MDA-MB-435
# SF-268 CNS = test system: SF-268 CNS
# A549 NSCLC = test system: A549 NSCLC
# HL-60(TB) leukemia = test system: HL-60(TB) leukemia
# SNB-75 CNS = test system: SNB-75 CNS
# M14 melanoma = test system: M14 melanoma
# UACC-62 melanoma = test system: UACC-62 melanoma
# T-47D breast = test system: T-47D breast
# IGROV1 ovarian = test system: IGROV1 ovarian
# OVCAR-8 ovarian = test system: OVCAR-8 ovarian
# HS 578T breast = test system: HS 578T breast
# EKVX NSCLC = test system: EKVX NSCLC
# MDA-MB-468 breast = test system: MDA-MB-468 breast
# SK-MEL-5 melanoma = test system: SK-MEL-5 melanoma
# SR leukemia = test system: SR leukemia
# TK-10 renal = test system: TK-10 renal
# SF-295 CNS = test system: SF-295 CNS
# RPMI-8226 leukemia = test system: RPMI-8226 leukemia
# HT29 colon = test system: HT29 colon
# CCRF-CEM leukemia = test system: CCRF-CEM leukemia
# NCI-H23 lung = test system: NCI-H23 lung
# SF-539 CNS = test system: SF-539 CNS
# UACC-257 melanoma = test system: UACC-257 melanoma
# LOX IMVI melanoma = test system: LOX IMVI melanoma
# OVCAR-4 ovarian = test system: OVCAR-4 ovarian
smiles,measurement,setting,value
Cn1cc(-c2nnc(N)nc2-c2c[nH]c3ccccc23)c2cc(Br)cnc21,GI50,786-0 renal,9.51 µM
same,TGI,786-0 renal,26.3 µM
same,GI50,HCT-116 colon,8.67 µM
same,TGI,HCT-116 colon,21.2 µM
same,GI50,U251 CNS,10.5 µM
same,TGI,U251 CNS,23.2 µM
same,GI50,MDA-MB-231 breast,7.8 µM
same,TGI,MDA-MB-231 breast,27.6 µM
same,GI50,ACHN renal,5.41 µM
same,TGI,ACHN renal,19.2 µM
same,GI50,HOP-62 NSCLC,9.73 µM
same,TGI,HOP-62 NSCLC,25.9 µM
same,GI50,DU-145 prostate,14.5 µM
same,TGI,DU-145 prostate,28.8 µM
same,TGI,UO-31 renal,14.8 µM
same,GI50,MOLT-4 leukemia,3.37 µM
same,TGI,MOLT-4 leukemia,27.3 µM
same,GI50,SW-620 colon,10 µM
same,TGI,SW-620 colon,23.3 µM
same,GI50,NCI-H522 lung,3.78 µM
same,TGI,NCI-H522 lung,21.6 µM
same,GI50,OVCAR-3 ovarian,11.1 µM
same,TGI,OVCAR-3 ovarian,23.4 µM
same,GI50,SN12C renal,10.2 µM
same,TGI,SN12C renal,22.2 µM
same,GI50,SK-MEL-28 melanoma,10.9 µM
same,TGI,SK-MEL-28 melanoma,22.8 µM
same,GI50,HCC-2998 colon,10.1 µM
same,TGI,HCC-2998 colon,23.7 µM
same,GI50,COLO 205 colon,7.03 µM
same,TGI,COLO 205 colon,21.1 µM
same,GI50,NCI-H226 lung,12.2 µM
same,TGI,NCI-H226 lung,36.7 µM
same,GI50,NCI/ADR-RES ovarian,10.7 µM
same,TGI,NCI/ADR-RES ovarian,36.3 µM
same,GI50,K-562 leukemia,2990 nM
same,TGI,K-562 leukemia,> 100 µM
same,GI50,MCF7 breast,1500 nM
same,TGI,MCF7 breast,15 µM
same,GI50,SK-MEL-2 melanoma,12.3 µM
same,TGI,SK-MEL-2 melanoma,27.1 µM
same,GI50,HOP-92 NSCLC,4.44 µM
same,TGI,HOP-92 NSCLC,24.1 µM
same,GI50,BT-549 breast,5.94 µM
same,TGI,BT-549 breast,19.8 µM
same,GI50,MALME-3M melanoma,8.27 µM
same,TGI,MALME-3M melanoma,20.7 µM
same,GI50,CAKI-1 renal,10.7 µM
same,TGI,CAKI-1 renal,22.5 µM
same,GI50,OVCAR-5 ovarian,14.6 µM
same,TGI,OVCAR-5 ovarian,29.8 µM
same,GI50,A498 renal,12.3 µM
same,TGI,A498 renal,24.8 µM
same,GI50,HCT-15 colon,4.68 µM
same,TGI,HCT-15 colon,32 µM
same,GI50,PC-3 prostate,8.26 µM
same,TGI,PC-3 prostate,> 100 µM
same,GI50,NCI-H460 lung,5.02 µM
same,TGI,NCI-H460 lung,21 µM
same,GI50,KM12 colon,13.1 µM
same,TGI,KM12 colon,27.6 µM
same,GI50,SNB-19 CNS,12.2 µM
same,TGI,SNB-19 CNS,24.8 µM
same,GI50,RXF 393 renal,3.37 µM
same,TGI,RXF 393 renal,20.3 µM
same,GI50,SK-OV-3 ovarian,16.6 µM
same,TGI,SK-OV-3 ovarian,35.6 µM
same,GI50,MDA-MB-435,3.11 µM
same,TGI,MDA-MB-435,10.4 µM
same,GI50,SF-268 CNS,10.7 µM
same,TGI,SF-268 CNS,27.3 µM
same,GI50,A549 NSCLC,12.7 µM
same,TGI,A549 NSCLC,46.9 µM
same,GI50,HL-60(TB) leukemia,4.63 µM
same,TGI,HL-60(TB) leukemia,34.6 µM
same,GI50,SNB-75 CNS,2700 nM
same,TGI,SNB-75 CNS,15.6 µM
same,GI50,M14 melanoma,10.8 µM
same,TGI,M14 melanoma,23.9 µM
same,GI50,UACC-62 melanoma,3.14 µM
same,TGI,UACC-62 melanoma,16.8 µM
same,GI50,T-47D breast,4.12 µM
same,TGI,T-47D breast,24.9 µM
same,GI50,IGROV1 ovarian,2600 nM
same,TGI,IGROV1 ovarian,17.3 µM
same,GI50,OVCAR-8 ovarian,12.5 µM
same,TGI,OVCAR-8 ovarian,28.9 µM
same,GI50,HS 578T breast,4.92 µM
same,TGI,HS 578T breast,32 µM
same,GI50,EKVX NSCLC,13.2 µM
same,TGI,EKVX NSCLC,28.5 µM
same,GI50,MDA-MB-468 breast,2380 nM
same,TGI,MDA-MB-468 breast,12.8 µM
same,GI50,SK-MEL-5 melanoma,6.84 µM
same,TGI,SK-MEL-5 melanoma,19.8 µM
same,GI50,SR leukemia,1540 nM
same,TGI,SR leukemia,71.2 µM
same,GI50,TK-10 renal,12.8 µM
same,TGI,TK-10 renal,26.8 µM
same,GI50,SF-295 CNS,4.07 µM
same,TGI,SF-295 CNS,17.5 µM
same,GI50,RPMI-8226 leukemia,6.43 µM
same,TGI,RPMI-8226 leukemia,> 100 µM
same,GI50,HT29 colon,10 µM
same,TGI,HT29 colon,27.3 µM
same,GI50,CCRF-CEM leukemia,4.8 µM
same,TGI,CCRF-CEM leukemia,33.6 µM
same,GI50,NCI-H23 lung,13.9 µM
same,TGI,NCI-H23 lung,36 µM
same,GI50,SF-539 CNS,10.7 µM
same,TGI,SF-539 CNS,22.6 µM
same,GI50,UACC-257 melanoma,13.4 µM
same,TGI,UACC-257 melanoma,27.1 µM
same,GI50,LOX IMVI melanoma,5.19 µM
same,TGI,LOX IMVI melanoma,26.5 µM
same,GI50,OVCAR-4 ovarian,7.09 µM
same,TGI,OVCAR-4 ovarian,21.2 µM
